Results: US11629171B2, “Beta-hairpin peptidomimetics” (POLYPHOR AG, priority 2017, dated 2023)
≈ marks a conversion by molar mass, not a printed value. Where a SMILES comes first, the peptide text is derived from it. Bridges are numbered along the chain shown (N, C = ends). Roman numbers before positions name the chains, in order. [ ]: non-standard residue; d: D form. The star is where a group is joined. Thr(ol) = C[C@@H](O)[C@H](N)CO; Tle = CC(C)(C)[C@H](N)C(=O)O; Hiv = CC(C)[C@H](O)C(=O)O; Isovaleryl = CC(C)CC(=O)*; dDab = NCC[C@@H](N)C(=O)O; hSer = N[C@@H](CCO)C(=O)O; Orn = NCCC[C@H](N)C(=O)O; Dab = NCC[C@H](N)C(=O)O; Nva = CCC[C@H](N)C(=O)O; Dap = NC[C@H](N)C(=O)O; NHCH2CH2OH = OCCN*

Assays:
Format in all cases: cell-based
[1] = system: Acinetobacter baumannii 872842; settings: 872842
Outline: (§1)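 Broth microdilution per CLSI; MH-II (cation-adjusted) + 0.002% P-80 final; ~10^6 CFU/mL inoculum; 2-fold peptide series; 35° C, 18-20 h; MIC = no visible growth, μg/mL.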

[2] = system: Acinetobacter baumannii DSM 30008; settings: DSM 30008
Outline: as §1

[3] = system: Enterobacter cloacae 848840; settings: 848840
Outline: as §1

Escherichia coli 926415 = settings: 926415
Outline: as §1

[4] = system: Escherichia coli ATCC 25922; settings: ATCC 25922
Outline: as §1

[5] = system: Klebsiella pneumoniae 968733; settings: 968733
Outline: as §1

[6] = system: Klebsiella pneumoniae SSI #3010; settings: SSI #3010
Outline: as §1

[7] = system: Pseudomonas aeruginosa ATCC 27853; settings: ATCC 27853
Outline: as §1

[8] = system: human red blood cells (hRBC); assay: Hemolysis; settings: red cells of human, 1 h, 200
Outline: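 Read-out is supernatant absorbance at 540 nm, normalised to full lysis by 2% Triton X-100 and zero lysis by PBS with 10% water. Peptides (200 μg/mL) were exposed to 20% v/v washed human erythrocytes at 37° C for 1 h under shaking.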

| Structure (SMILES) | MIC [1] [µg/mL] | MIC [2] [µg/mL] | MIC [3] [µg/mL] | MIC (Escherichia coli 926415) [µg/mL] | MIC [4] [µg/mL] | MIC [5] [µg/mL] | MIC [6] [µg/mL] | MIC [7] [µg/mL] | Hemolysis at 200 μg/mL [8] [%] | Acinetobacter baumannii DSM 30008 MIC [2] [µg/mL] | Escherichia coli ATCC 25922 MIC [4] [µg/mL] | Klebsiella pneumoniae SSI #3010 MIC [6] [µg/mL] | Pseudomonas aeruginosa ATCC 27853 MIC [7] [µg/mL] |
| --- | --- | --- | --- | --- | --- | --- | --- | --- | --- | --- | --- | --- | --- |
| CC(C)C[C@@H]1NC(=O)[C@@H](CC(C)C)NC(=O)[C@H](CCN)NC(=O)[C@@H](NC(=O)[C@H](CCN)NC(=O)[C@H](CO)NC(=O)[C@H](CCN)NC(=O)CC[C@@H]2NC(=O)[C@H](CN)NC(=O)[C@H](Cc3ccc(O)cc3)NC(=O)[C@@H](NC(=O)[C@@H](O)C(C)C)CSSC[C@@H](C(=O)NCCO)NC(=O)[C@H](C(C)(C)C)NC(=O)[C@H](CO)NC(=O)[C@H](Cc3c[nH]c4ccccc34)NC(=O)[C@H]([C@@H](C)O)NC(=O)[C@@H](CCN)NC2=O)CCNC(=O)[C@H]([C@@H](C)O)NC(=O)[C@H](CCN)NC(=O)[C@H](CCN)NC1=O [Ex. 59] (I: H-[Hiv]CY[Dap]E[dDab]TWS[Tle]C-NHCH2CH2OH / II: [Dab]S[Dab][Dab][Dab][dL]L[Dab][Dab]T; disulfide I:2-I:11; amide I:5-II:N; lactam II:4-II:C) | 0.25 (≈ 0.107 µM) | 0.125 (≈ 0.0537 µM) | 1 (≈ 0.429 µM) | 0.125 (≈ 0.0537 µM) | 0.125 (≈ 0.0537 µM) | 0.25 (≈ 0.107 µM) | 0.125 (≈ 0.0537 µM) | 0.125 (≈ 0.0537 µM) | <1 | – | – | – | – |
| CCC[C@@H]1NC(=O)[C@@H](CC(C)C)NC(=O)[C@H](CCN)NC(=O)[C@@H](NC(=O)[C@H](CN)NC(=O)[C@@H](NC(=O)[C@H](CCN)NC(=O)CC[C@@H]2NC(=O)[C@H](CCN)NC(=O)[C@H](Cc3ccc(O)cc3)NC(=O)[C@@H](NC(=O)[C@@H](NC(C)=O)C(C)C)CSSC[C@@H](C(=O)N[C@@H](CO)C(N)=O)NC(=O)[C@H](C(C)C)NC(=O)[C@H](CO)NC(=O)[C@H](Cc3c[nH]c4ccccc34)NC(=O)[C@H](CO)NC(=O)[C@@H](CCN)NC2=O)[C@@H](C)O)CCNC(=O)[C@H]([C@@H](C)O)NC(=O)[C@H](CCN)NC(=O)[C@H](CCN)NC1=O [Ex. 313] (I: Ac-VCY[Dab]E[dDab]SWSVCS-NH2 / II: [Dab]T[Dap][Dab][Dab][dL][Nva][Dab][Dab]T; disulfide I:2-I:11; amide I:5-II:N; lactam II:4-II:C) | 0.125 (≈ 0.0524 µM) | – | 0.0625 (≈ 0.0262 µM) | 0.125 (≈ 0.0524 µM) | – | 0.125 (≈ 0.0524 µM) | – | – | <1 | 0.03125 | 0.01562 | 0.0625 | 0.125 |
| CC(=O)N[C@H](C(=O)N[C@H]1CSSC[C@@H](C(=O)N[C@@H](CO)C(N)=O)NC(=O)[C@H](C(C)C)NC(=O)[C@H](CO)NC(=O)[C@H](Cc2c[nH]c3ccccc23)NC(=O)[C@H](CCC(=O)N[C@@H](CCN)C(=O)N[C@H](C(=O)N[C@@H](CN)C(=O)N[C@H]2CCNC(=O)[C@H]([C@@H](C)O)NC(=O)[C@H](CCN)NC(=O)[C@H](CCN)NC(=O)[C@H](CC(C)C)NC(=O)[C@@H](CC(C)C)NC(=O)[C@H](CCN)NC2=O)[C@@H](C)O)NC(=O)[C@@H](CCN)NC(=O)[C@H](CCCN)NC(=O)[C@H](CO)NC(=O)[C@H](Cc2ccc(O)cc2)NC1=O)C(C)C [Ex. 354] (I: Ac-VCYS[Orn][dDab]EWSVCS-NH2 / II: [Dab]T[Dap][Dab][Dab][dL]L[Dab][Dab]T; disulfide I:2-I:11; amide I:7-II:N; lactam II:4-II:C) | 0.0625 (≈ 0.0259 µM) | – | 0.125 (≈ 0.0518 µM) | 0.5 (≈ 0.207 µM) | – | 0.25 (≈ 0.104 µM) | – | – | 1 | 0.03125 | 0.0625 | 0.0625 | 0.125 |
| CC(C)C[C@@H]1NC(=O)[C@@H](CC(C)C)NC(=O)[C@H](CCN)NC(=O)[C@@H](NC(=O)[C@H](CCN)NC(=O)[C@@H](NC(=O)[C@H](CCN)NC(=O)CC[C@@H]2NC(=O)[C@H](CCN)NC(=O)[C@H](Cc3ccc(O)cc3)NC(=O)[C@@H](NC(=O)[C@@H](N)C(C)C)CSSC[C@@H](C(=O)N[C@@H](CO)C(=O)O)NC(=O)[C@H](C(C)(C)C)NC(=O)[C@H](CO)NC(=O)[C@H](Cc3c[nH]c4ccccc34)NC(=O)[C@H]([C@@H](C)O)NC(=O)[C@@H](CCN)NC2=O)[C@@H](C)O)CCNC(=O)[C@H]([C@@H](C)O)NC(=O)[C@H](CCN)NC(=O)[C@H](CCN)NC1=O [Ex. 53] (I: H-VCY[Dab]E[dDab]TWS[Tle]CS-OH / II: [Dab]T[Dab][Dab][Dab][dL]L[Dab][Dab]T; disulfide I:2-I:11; amide I:5-II:N; lactam II:4-II:C) | 0.5 (≈ 0.208 µM) | 0.25 (≈ 0.104 µM) | 8 (≈ 3.33 µM) | 0.5 (≈ 0.208 µM) | 0.125 (≈ 0.0521 µM) | 4 (≈ 1.67 µM) | 0.125 (≈ 0.0521 µM) | 0.125 (≈ 0.0521 µM) | <1 | – | – | – | – |
| CC(C)CC(=O)N[C@H]1CSSC[C@@H](C(=O)NCCO)NC(=O)[C@H](C(C)(C)C)NC(=O)[C@H](CO)NC(=O)[C@H](Cc2c[nH]c3ccccc23)NC(=O)[C@H]([C@@H](C)O)NC(=O)[C@@H](CCN)NC(=O)[C@H](CCC(=O)N[C@@H](CCN)C(=O)N[C@H](C(=O)N[C@@H](CCN)C(=O)N[C@H]2CCNC(=O)[C@H]([C@@H](C)O)NC(=O)[C@H](CCN)NC(=O)[C@H](CCN)NC(=O)[C@H](CC(C)C)NC(=O)[C@@H](CC(C)C)NC(=O)[C@H](CCN)NC2=O)[C@@H](C)O)NC(=O)[C@H](CN)NC(=O)[C@H](Cc2ccc(O)cc2)NC1=O [Example 1] (I: Isovaleryl-CY[Dap]E[dDab]TWS[Tle]C-NHCH2CH2OH / II: [Dab]T[Dab][Dab][Dab][dL]L[Dab][Dab]T; disulfide I:1-I:10; amide I:4-II:N; lactam II:4-II:C) | 1 (≈ 0.43 µM) | 0.125 (≈ 0.0537 µM) | 4 (≈ 1.72 µM) | 1 (≈ 0.43 µM) | 0.125 (≈ 0.0537 µM) | 2 (≈ 0.86 µM) | 0.5 (≈ 0.215 µM) | 0.125 (≈ 0.0537 µM) | <1 | – | – | – | – |
| CC(C)C[C@@H]1NC(=O)[C@@H](CC(C)C)NC(=O)[C@H](CCN)NC(=O)[C@@H](NC(=O)[C@H](CCN)NC(=O)[C@@H](NC(=O)[C@H](CCN)NC(=O)CC[C@@H]2NC(=O)[C@H](CCN)NC(=O)[C@H](C(C)C)NC(=O)[C@@H](NC(=O)[C@@H](O)C(C)C)CSSC[C@@H](C(=O)N[C@@H](Cc3ccc(O)cc3)C(=O)NCCO)NC(=O)[C@H](C(C)(C)C)NC(=O)[C@H](CO)NC(=O)[C@H](Cc3c[nH]c4ccccc34)NC(=O)[C@H](CCO)NC(=O)[C@@H](CCN)NC2=O)[C@@H](C)O)CCNC(=O)[C@H]([C@@H](C)O)NC(=O)[C@H](CCN)NC(=O)[C@H](CCN)NC1=O [Ex. 69] (I: H-[Hiv]CV[Dab]E[dDab][hSer]WS[Tle]CY-NHCH2CH2OH / II: [Dab]T[Dab][Dab][Dab][dL]L[Dab][Dab]T; disulfide I:2-I:11; amide I:5-II:N; lactam II:4-II:C) | 0.0625 (≈ 0.0254 µM) | 0.0625 (≈ 0.0254 µM) | 0.125 (≈ 0.0509 µM) | 0.0625 (≈ 0.0254 µM) | 0.0625 (≈ 0.0254 µM) | 0.125 (≈ 0.0509 µM) | 0.0625 (≈ 0.0254 µM) | 0.125 (≈ 0.0509 µM) | 2 | – | – | – | – |
| CC(C)C[C@@H]1NC(=O)[C@@H](CC(C)C)NC(=O)[C@H](CCN)NC(=O)[C@@H](NC(=O)[C@H](CN)NC(=O)[C@@H](NC(=O)[C@H](CCN)NC(=O)CC[C@@H]2NC(=O)CNC(=O)[C@H](CCCN)NC(=O)[C@@H](NC(=O)[C@H](Cc3ccc(O)cc3)NC(=O)[C@@H](NC(=O)[C@@H](O)C(C)C)[C@@H](C)O)CSSC[C@@H](C(=O)N[C@H](C(=O)N[C@@H](C)C(=O)N[C@H](CO)[C@@H](C)O)C(C)(C)C)NC(=O)[C@H](Cc3c[nH]c4ccccc34)NC2=O)[C@@H](C)O)CCNC(=O)[C@H]([C@@H](C)O)NC(=O)[C@H](CCN)NC(=O)[C@H](CCN)NC1=O [Ex. 212] (I: H-[Hiv]TYC[Orn]GEWC[Tle]A[Thr(ol)] / II: [Dab]T[Dap][Dab][Dab][dL]L[Dab][Dab]T; disulfide I:4-I:9; amide I:7-II:N; lactam II:4-II:C) | 0.5 (≈ 0.214 µM) | 0.125 (≈ 0.0534 µM) | 0.5 (≈ 0.214 µM) | 1 (≈ 0.427 µM) | 0.0625 (≈ 0.0267 µM) | 2 (≈ 0.854 µM) | 0.25 (≈ 0.107 µM) | 0.25 (≈ 0.107 µM) | 1 | – | – | – | – |
